Laboratory results reported in patent publication US6960458B2, “Erythrose reductase, its cDNA and cell which the cDNA express” (Director of National Food Research Institute, Ministry of …, priority 2001, dated 2005).

What was measured:
[1] = system: natural type erythrose reductase type III; conditions: rate with D-erythrose = 100%; 12 mM substrate, 0.2 mM NADPH, 50 mM phosphate buffer pH 6.5, 37° C.; reported natural type (Ishizuka et al. 1992); cited from earlier work
[2] = system: recombinant erythrose reductase type II; assay: Substrate specificity of purified recombinant erythrose reductase type II, NADPH consumption at 340 nm; format: biochemical, Trichosporonoides megachiliensis; conditions: rate with D-erythrose = 100%; 12 mM substrate, 0.2 mM NADPH, 50 mM phosphate buffer pH 6.5, 37° C., 5 minutes
Experimental: (§1) The substrate specificities of the purified recombinant erythrose reductases type III, type II, and type I were compared with that of the erythrose reductase heretofore reported (natural type: H. Ishizuka et al., Biosci. Biotech. Biochem., 56(6), 941-945, 1992).
(§2) In the presence of 50 mM of a phosphate buffer at pH 6.5, 12 mM of a substrate, and 0.2 mM of NADPH, 20 μL of an enzyme was acted (1 mL in total), and a change with time in optical absorbance at 340 nm was measured at 37° C. for 5 minutes.
(§3) With the reaction rate at which erythrose is reduced as a substrate as being 100%, relative values (%) of reaction rates for reducing various ketoses and aldoses are shown in Table 1.

[3] = system: recombinant erythrose reductase type I; assay: Substrate specificity of purified recombinant erythrose reductase type I, NADPH consumption at 340 nm; format: biochemical, Trichosporonoides megachiliensis; conditions: rate with D-erythrose = 100%; 12 mM substrate, 0.2 mM NADPH, 50 mM phosphate buffer pH 6.5, 37° C., 5 minutes
Experimental: as §1, §2, §3

[4] = system: recombinant erythrose reductase type III; assay: Substrate specificity of purified recombinant erythrose reductase type III, NADPH consumption at 340 nm; format: biochemical, Trichosporonoides megachiliensis; conditions: rate with D-erythrose = 100%; 12 mM substrate, 0.2 mM NADPH, 50 mM phosphate buffer pH 6.5, 37° C., 5 minutes
Experimental: as §1, §2, §3

[5] = IEF-PAGE (isoelectric focusing) of purified recombinant erythrose reductases; format: physicochemical; conditions: Phast Gel IEF pH 4-6.5, from mobility of band
Experimental: On the purified recombinant erythrose reductases, IEF-PAGE was carried out with a fully automatic electrophoresis system called Phast System (produced by Amersham Pharmacia Biotech), using a gel (trade name: Phast Gel (IEF pH 4-6.5), manufacturer: Amersham Pharmacia Biotech).
Electrophoresis was conducted using a pH gradient gel, and the separated proteins were stained.
From FIG. 9, the isoelectric point of each enzyme could be confirmed from the mobility of a band.

Row | Molecule | Relative value (%) of reaction rate, Normal type Type III [1] | Relative value (%) of reaction rate, Recombinant type Type II [2] | Relative value (%) of reaction rate, Recombinant type Type I [3] | Relative value (%) of reaction rate, Recombinant type Type III [4] | isoelectric point (pI) [5]
1 | O=C[C@@H](O)[C@H](O)[C@H](O)CO [D-arabinose] | 0.0% | 0.0% | 0.9% | 0.0% | –
2 | OC[C@H]1O[C@H](O[C@H]2O[C@H](CO)[C@@H](O)[C@H](O)[C@H]2O)[C@H](O)[C@@H](O)[C@@H]1O [Trehalose] | 0.0% | 0.0% | 0.0% | 0.0% | –
3 | O=C(CO)[C@@H](O)CO [L-erythrulose] | 38.0% | – | – | – | –
4 | O=C(CO)[C@@H](O)[C@H](O)[C@@H](O)CO [L-sorbose] | 0.0% | 0.0% | 0.0% | 0.0% | –
5 | O=C[C@H](O)[C@@H](O)[C@H](O)[C@H](O)CO [D-glucose] | 0.0% | 0.0% | 0.0% | 0.0% | –
6 | O=C[C@H](O)[C@H](O)CO [D-erythrose] | 100.0% | 100.0% | 100.0% | 100.0% | –
7 | O=C[C@H](O)[C@H](O)[C@H](O)CO [D-ribose] | 1.2% | 0.7% | 1.0% | 2.3% | –
8 | O=C[C@H](O)[C@@H](O)[C@H](O)CO [D-xylose] | 1.2% | 2.4% | 3.2% | 4.5% | –
9 | O=C[C@H](O)CO [D-glyceraldehyde] | 66.0% | 107.8% | 102.0% | 98.2% | –
10 | O=C[C@@H](O)[C@@H](O)[C@H](O)[C@H](O)CO [D-mannose] | 0.0% | 0.0% | 0.0% | 0.0% | –
11 | O=C(CO)[C@@H](O)[C@H](O)CO [D-xylulose] | 0.0% | 3.5% | 7.5% | 7.8% | –
12 | O=Cc1ccc([N+](=O)[O-])cc1 [p-nitrobenzaldehyde] | 46.0% | 8.8% | 11.5% | 66.3% | –
13 | O=C[C@H](O)[C@@H](O)[C@H](O)[C@H](O)C(=O)O [D-glucuronate] | 6.6% | 0.0% | 0.7% | 0.8% | –
14 | O=C[C@H](O)[C@@H](O)[C@@H](O)[C@H](O)CO [D-galactose] | 0.0% | 0.0% | 0.0% | 0.0% | –
15 | O=C(CO)[C@@H](O)[C@H](O)[C@H](O)CO [D-fructose] | 0.0% | 0.0% | 0.0% | 0.0% | –
16 | purified recombinant erythrose reductase type I: recombinant enzyme of SEQ. ID No. 6 expressed in E. coli, histidine Tag cleaved (protein) MSYNKNIPLNDGNSIPALGYGTWQAEPGQVGEGVKLAVKAGYRHLDLAKVYQNQTEIGQALKELFDEGVVKREDLFITSKLWNNRHAPEHVEPALDETLKELGLSYLDLYLIHWPVAFKFTTPDELLPADPTNKDLAYIDDSVKLSDTWKAVVALKKTGKTKSVGVSNFSTRLVDLVEEASGERPAVNQIEAHPLLQQDELVAHHKSKNIVITAYSPLGNNVAGKPPLTENPGIVDAAKRLNHTPAAVLIAWGIQRGYSVLVKSVTPSRIKSNFEQITLSDEEFQRVTNLIKEYGESRNNVPFNYKPSWSIDVFGTQYEAKATHKINA | – | – | – | – | 4.7
17 | purified recombinant erythrose reductase type II: recombinant enzyme of SEQ. ID No. 4 expressed in E. coli, histidine Tag cleaved (protein) MSYKQYIPLNDGNKIPALGFGTWQAEPGQVGASVKNAVKAGYRHLDLAKVYQNQSEIGVALQELFDQGIVKREDLFITSKVWNNRHAPEHVEPALDETLKELGLSYLDLYLIHWPVAFKFTTPQELFPTEPDNKELAAIDDSIKLVDTWKAVVALKKTGKTKSVGVSNFTTDLVDLVEKASGERPAVNQIEAHPLLQQDELVAHHKSKNIVITAYSPLGNNVSGKPPLTQNPGIEATAKRLNHTPAAVLLAWGIQRGYSVLVKSVTPSRIESNYDQITLSPEEFQKVTDLIKEYGESRNNIPLNYKPSWPISVFGTSDEAKATHKINTNL | – | – | – | – | 5.3
18 | purified recombinant erythrose reductase type III: recombinant enzyme of SEQ. ID No. 2 expressed in E. coli, histidine Tag cleaved (protein) MSYKQYIPLNDGNKIPALGFGTWQAEPGQVGASVKNAVKAGYRHLDLAKVYQNQSEIGVALQELFDQGIVKREDLFITSKVWNNRHAPEHVEPALDETLKELGLSYLDLYLIHWPVAFKFTTPQELFPTEPDNKELAAIDDSIKLVDTWKAVVALKKTGKTKSVGVSNFTTDLVDLVEKASGERPAVNQIEAHPLLQQDELVAHHKSKNIVITAYSPLGNNVSGKPPLTQNPGIEATAKRLNHTPAAVLLAWGIQRGYSVLVKSVTPSRIESNYDQITLSPEEFQKVTDLIKEYGESRNNIPLNYKPSWPISVFGTSDEAKATHKINTNL | – | – | – | – | 5.8
